Patent US5246949A, “Preparation for endermism containing dopamine derivatives” (Sansho Co., Ltd., priority 1989, dated 1993)
Structures can show the parent of a compound that is named as a salt. Where two headings read alike, the source gives them in different places. Each block holds one molecule with its values, some of them ahead of it.

Assays:
[1] = in vitro skin permeability test (horizontal membrane type in vitro diffusion cell, HPLC determination); conditions: for skin permeability on adding a lactic acid ester: Test Example 1, FIG. 1; for skin permeability on adding a higher alcohol: Test Examples 5 to 8, FIGS. 5 to 8, 10% by weight
Protocol: 100 mg of each dopamine derivative hydrochloride as shown in Table 1 was weighed and 900 mg of propylene glycol was added thereto to obtain a solution or suspension containing 10% by weight of each dopamine derivative hydrochloride. These solutions and suspensions were referred to as comparative samples a to e, respectively.
Then 50 mg (in the cases of invention samples A to D) or 100 mg (in the cases of invention samples E to H) of each lactic acid ester or fatty acid monoglyceride as shown in Table 1 was added thereto. Further, propylene glycol was added to make the total amount 1000 mg. Thus, a solution or suspension containing 10% by weight of each dopamine derivative hydrochloride was obtained. These solutions and suspensions were referred to as invention samples A to H.
100 mg of each dopamine derivative hydrochloride as shown in Table 2 was weighed and 900 mg of polyethylene glycol 400 was added thereto. Thus a solution or suspension containing 10% by weight of each dopamine derivative hydrochloride was obtained. These solutions and suspensions were referred to as comparative samples f to i respectively.
Further polyethylene […] was added thereto to make the total amount 1000 mg. Thus, a solution or suspension containing 10% by weight of each dopamine derivative hydrochloride was prepared. These solutions and suspensions were referred to as invention samples I to N, respectively.
The abdominal hair of a male Wister rat, weighing 170 to 200 g and 7 weeks of age, was removed under anesthesia. […] Next, the whole abdominal skin was cleansed with 70% ethanol and then peeled off under anesthesia.
The peeled skin was fixed on the lid of a horizontal membrane type in vitro diffusion cell (penetration area: 7.54 cm^2) in such a manner that the epidermis served as the donor face. As a receiver solution, 50 ml of physiological saline solution or a 30% aqueous solutioh of polyethylene glycol 400 was employed. On the donor side, 0.5 g of a solution of each sample was applied by adding dropwise. Then the lid was fixed in a receptor while paying attention so no bubbles remained in the derm side, followed by storing it in an incubator maintained at 32° C. The receptor solution was stirred with a stirrer and 0.5 ml portions thereof were collected with the lapse of time so as to determine the dopamine derivative contained therein. The determination was effected by high performance liquid chromatography. (iii) Test Results

[2] = oral or percutaneous; cited from earlier work
[3] = 5% aqueous solution of glyceryl monocaprylate; Okumura et al. 1989; cited from earlier work
[4] = cited from earlier work
[5] = oral drug; E. Lodola et al. 1986; cited from earlier work
[6] = SOL I. Rajifer et al. 1986; cited from earlier work
[7] = 10% by weight in propylene glycol, 32° C.
[8] = Test Examples 2 to 4, FIGS. 2 to 4, 10% by weight in propylene glycol, 32° C.

Structure (SMILES): CC(C)C(=O)Oc1ccc(CCN)cc1OC(=O)C(C)C.Cl [3,4-di-O-isobutyryldopamine hydrochloride]
skin permeability on adding a lactic acid ester [1, 7]: extremely elevated
skin permeability on adding a higher alcohol ([1]; 32° C.): extremely elevated

skin permeability on adding a lactic acid ester or a fatty acid monoglyceride [1, 8]: extremely elevated
skin permeability on adding a higher alcohol ([1]; 32° C.): extremely elevated
Structure (SMILES): CNCCc1ccc(OC(=O)C(C)C)c(OC(=O)C(C)C)c1 [3,4-di-O-isobutyrylepinine hydrochloride]

Structure (SMILES): CCCC(=O)Oc1ccc(CCN)cc1OC(=O)CCC [3,4-di-O-n-butyryldopamine hydrochloride]
decomposition after penetrating into the skin [1]: considerably decomposed
skin permeability on adding a lactic acid ester or a fatty acid monoglyceride [1]: extremely elevated

Structure (SMILES): Cl.NCCc1ccc(OC(=O)c2cccnc2)c(OC(=O)c2cccnc2)c1 [3,4-di-O-nicotinoyldopamine hydrochloride]
skin permeability on adding a lactic acid ester or a fatty acid monoglyceride [1, 8]: extremely elevated
skin permeability on adding a higher alcohol ([1]; 32° C.): extremely elevated

Structure (SMILES): CC(C)(C)C(=O)Oc1ccc(CCN)cc1OC(=O)C(C)(C)C.Cl [3,4-di-O-pivaloyldopamine hydrochloride]
skin permeability on adding a lactic acid ester [1, 7]: extremely elevated
skin permeability on adding a higher alcohol ([1]; 32° C.): extremely elevated

Structure (SMILES): NCCc1ccc(O)c(O)c1 [Dopamine]
absorption when administered orally or percutaneously [2]: scarcely absorbed

Structure (SMILES): CC(CCc1ccc(O)cc1)NCCc1ccc(O)c(O)c1 (centres unmarked) [dobutamine]
absorption when administered orally or percutaneously [2]: scarcely absorbed

Structure (SMILES): Cl.NCCc1ccc(O)c(O)c1 [dopamine hydrochloride]
percutaneous penetration rate relative to dopamine hydrochloride alone [3]: 34 times
skin damage ([4]; if percutaneously absorbed): causes skin damage
irritation to the skin ([4]; percutaneous): highly irritative to the skin

Structure (SMILES): CNCCc1ccc(OC(=O)C(C)C)c(OC(=O)C(C)C)c1 [ibopamine]
half-life in plasma [5]: 1.54 h
duration of the effect on improvement of the circulation (cardiac coefficient) [6]: 3 to 6 h
